Reference: US11013726B2 (Arbutus Biopharma Corporation, priority 2016, dated 2021)
Read-outs that look alike come from different tables or passages of the source.

System: HBsAg
Test: HBsAg assay
Assay type: cell-based, hepatitis B virus
Experimental: Inhibition of HBsAg was determined in HepG2.2.15 cells. Cells were maintained in culture medium containing 10% fetal calf serum, […], Glutamine, penicillin/streptomycin. Cells were seeded in 96-well collagen-coated plate at a density of 30,000 cells/well. Serially diluted compounds were added to cells next day at the final DMSO concentration of 0.5%. Cells were incubated with compounds for 2-3 days, after which medium was removed. Fresh medium containing compounds was added to cells for additional 3-4 days. At day 6 after exposure of compounds, supernatant was collected, the HBsAg immunoassay (microplate-based chemiluminescence immunoassay kits, CLIA, Autobio Diagnosics Co., Zhengzhou, China, Catalog # CL0310-2) was used to determine the level of HBsAg according to manufactory instruction. Dose-response curves were generated and the EC50 value (effective concentrations that achieved 50% inhibitory effect) were determined using XLfit software. In addition, cells were seeded at a density of 5,000 cells/well for determination of cell viability in the presence and absence of compounds by using CellTiter-Glo reagent (Promega). Tables 1-3 show EC50 values obtained by the HBsAg assay for selected compounds.

[1] = Hepatitis B virus, HepG2.2.15, 144 h, read-out: sAg EC50, μM, HepG2.2.15 cells, day 6
[2] = read-out: sAg EC50, HepG2.2.15 cells, day 6

SMILES | EC50 [1] [µM] | EC50 [2] [µM]
COCC1COc2cc3c(cc2OC1)-c1cc(=O)c(C(=O)O)cn1C(C(C)(C)C)C3 (centres unmarked) [Example 96, 6-(Tert-butyl)-11-(methoxymethyl)-2-oxo-6,7,11,12-tetrahydro-2H,10H-[1,4]dioxepino[2,3-g]pyrido[2,1-a]isoquinoline-3-carboxylic acid] | 0.14 | –
COCCCOc1cc2c(cc1Cl)-c1cc(=O)c(I)cn1C(C(C)(C)C)C2 (centres unmarked) [Example 131, 6-Tert-butyl-10-chloro-3-iodo-9-(3-methoxypropoxy)-6H,7H-pyrido[2,1-a]isoquinolin-2-one] | 2.4 | –
COCCCOc1cc2c(nc1OC)-c1cc(=O)c(C(=O)O)cn1[C@@H](C(C)C)C2 (single isomer, unassigned) [Example 21] | 0.53 | –
COc1nc2c(cc1Cl)-c1cc(=O)c(C(=O)O)cn1C(C(C)C)CO2 (centres unmarked) [Example 104, 2-Chloro-7-isopropyl-3-methoxy-11-oxo-6,7-dihydro-11H-dipyrido[1,2-d:3′,2′-f][1,4]oxazepine-10-carboxylic acid] | 24.2 | –
COCCCOc1cc2c(nc1OC)-c1cc(=O)c(C(=O)O)cn1C(C(C)C)C2 (centres unmarked) [Example 20, 6-Isopropyl-2-methoxy-3-(3-methoxypropoxy)-10-oxo-5,10-dihydro-6H-pyrido[1,2-h][1,7]naphthyridine-9-carboxylic acid] | 0.005 | –
COCCCOc1cc2c(cc1Cl)-c1cc(=O)ccn1[C@H](C(C)C)CO2 [Example 136, (R)-2-Chloro-7-isopropyl-3-(3-methoxypropoxy)-6,7-dihydro-11H-benzo[f]pyrido[1,2-d][1,4]oxazepin-11-one] | 0.57 | –
COCCCOc1cc2c(cc1Cl)-c1cc(=O)c(C(=O)O)cn1C(C(C)C)CO2 (centres unmarked) [Example 33, 2-Chloro-7-isopropyl-3-(3-methoxypropoxy)-11-oxo-6,7-dihydro-11H-benzo[f]pyrido[1,2-d][1,4]oxazepine-10-carboxylic acid] | 0.029 | –
COc1cc2c(cc1Cl)-c1cc(=O)c(C(=O)O)cn1C(C1CCC1)CO2 (centres unmarked) [Example 10, 2-Chloro-7-cyclobutyl-3-methoxy-11-oxo-6,7-dihydro-11H-benzo[f]pyrido[1,2-d][1,4]oxazepine-10-carboxylic acid] | 0.24 | –
COCCCOc1cc2c(nc1Cl)-c1cc(=O)c(C(=O)O)cn1C1C(CCC1(C)C)O2 (single isomer, unassigned) [Example 83, 6-Chloro-7-(3-methoxypropoxy)-12,12-dimethyl-3-oxo-9a,11,12,12a-tetrahydro-3H,10H-cyclopenta[b]dipyrido[1,2-d:2′,3′-f][1,4]oxazepine-2-carboxylic acid] | – | 1
CC(C)COc1cc2c(cc1C1CC1)-c1cc(=O)c(C(=O)O)cn1[C@H](C(C)C)CO2 [Example 44, (R)-2-Cyclopropyl-3-isobutoxy-7-isopropyl-11-oxo-6,7-dihydro-11H-benzo[f]pyrido[1,2-d][1,4]oxazepine-10-carboxylic acid] | 0.006 | –
CCOP(=O)(OCC)c1cn2c(cc1=O)-c1cc(Cl)c(OCCCOC)cc1CC2C(C)(C)C (centres unmarked) [Example 105, Diethyl (6-(tert-butyl)-10-chloro-9-(3-methoxypropoxy)-2-oxo-6,7-dihydro-2H-pyrido[2,1-a]isoquinolin-3-yl)phosphonate] | 6.1 | –
COCCCOc1cc2c(nc1OC)-c1cc(=O)c(-c3n[nH]c(=S)[nH]3)cn1[C@H](C(C)C)C2 [Example 109, (S)-6-Isopropyl-2-methoxy-3-(3-methoxypropoxy)-9-(5-thioxo-4,5-dihydro-1H-1,2,4-triazol-3-yl)-5,6-dihydro-10H-pyrido[1,2-h][1,7]naphthyridin-10-one] | 0.029 | –
COCCCOc1cc2c(cc1Cl)-c1cc(=O)c(NC(C)=O)cn1C(C(C)(C)C)C2 (centres unmarked) [Example 121, N-[6-Tert-butyl-10-chloro-9-(3-methoxypropoxy)-2-oxo-6H,7H-pyrido[2,1-a]isoquinolin-3-yl]acetamide] | 8.6 | –
COCCCOc1cc2c(cc1Cl)-c1cc(=O)c(NC(=O)NC(C)(C)C)cn1C(C(C)(C)C)C2 (centres unmarked) [Example 126, 3-Tert-butyl-1-[6-tert-butyl-10-chloro-9-(3-methoxypropoxy)-2-oxo-6H,7H-pyrido[2,1-a]isoquinolin-3-yl]urea] | 6.1 | –
COCCCOc1cc2c(cc1Cl)-c1cc(=O)c(NC(=O)OC(C)(C)C)cn1C(C(C)(C)C)C2 (centres unmarked) [Example 119, Tert-butyl N-[6-tert-butyl-10-chloro-9-(3-methoxypropoxy)-2-oxo-6H,7H-pyrido[2,1-a]isoquinolin-3-yl]carbamate] | 0.14 | –
COCCCOc1cc2c(nc1OC)-c1cc(=O)c(C(C)=O)cn1C(C(C)C)C2 (centres unmarked) [Example 142, 9-Acetyl-6-isopropyl-2-methoxy-3-(3-methoxypropoxy)-5,6-dihydro-10H-pyrido[1,2-h][1,7]naphthyridin-10-one] | 0.62 | –
CC(C)(C)C1Cc2cc3c(cc2-c2cc(=O)c(C(=O)O)cn21)OCC1(COC1)CO3 (single isomer, unassigned) [Example 95, 6′-(Tert-butyl)-2′-oxo-6′,7′-dihydro-2′H,10′H,12′H-spiro[oxetane-3,11′-[1,4]dioxepino[2,3-g]pyrido[2,1-a]isoquinoline]-3′-carboxylic acid] | – | 0.08
COCCCOc1cc2c(cc1Cl)-c1cc(=O)c(-c3ccccn3)cn1C(C(C)(C)C)C2 (centres unmarked) [Example 133, 6-(Tert-butyl)-10-chloro-9-(3-methoxypropoxy)-3-(pyridin-2-yl)-6,7-dihydro-2H-pyrido[2,1-a]isoquinolin-2-one] | 4 | –
COCCCOc1cc2c(nc1OC)-c1cc(=O)c(C(=O)O)cn1C(C)(C(C)C)C2 (single isomer, unassigned) [Example 157, 6-Isopropyl-2-methoxy-3-(3-methoxypropoxy)-6-methyl-10-oxo-5,10-dihydro-6H-pyrido[1,2-h][1,7]naphthyridine-9-carboxylic acid] | – | 0.11
COCCCOc1cc2c(cc1Cl)-c1cc(=O)c(NC(=O)OCc3ccccn3)cn1C(C(C)(C)C)C2 (centres unmarked) [Example 123, Pyridin-2-ylmethyl (6-(tert-butyl)-10-chloro-9-(3-methoxypropoxy)-2-oxo-6,7-dihydro-2H-pyrido[2,1-a]isoquinolin-3-yl)carbamate] | 2.4 | –
CCc1cc2c(cc1OCCCOC)OC[C@@H](C(C)C)n1cc(C(=O)O)c(=O)cc1-2 [Example 47, (R)-2-Ethyl-7-isopropyl-3-(3-methoxypropoxy)-11-oxo-6,7-dihydro-11H-benzo[f]pyrido[1,2-d][1,4]oxazepine-10-carboxylic acid] | 0.006 | –
COCCCOc1cc2c(nc1Cl)-c1cc(=O)c(C(=O)O)cn1C1(CO2)CC(C)(C)C1 [Example 72, 2′-Chloro-3′-(3-methoxypropoxy)-3,3-dimethyl-11′-oxo-6′H,11′H-spiro[cyclobutane-1,7′-dipyrido[1,2-d:2′,3′-f][1,4]oxazepine]-10′-carboxylic acid] | 0.18 | –
CCc1cc2c(cc1OCC1CC1)OC[C@@H](C(C)C)n1cc(C(=O)O)c(=O)cc1-2 [Example 50, (R)-3-(Cyclopropylmethoxy)-2-ethyl-7-isopropyl-11-oxo-6,7-dihydro-11H-benzo[f]pyrido[1,2-d][1,4]oxazepine-10-carboxylic acid] | 0.011 | –
